Legend:
[1] = system: hepatocellular carcinoma (HepG2); assay: In vitro antiproliferative activity, HepG2; type: cell-based, human; conditions: HepG2 cells
Description: (§1) Antiproliferative activity of compounds 11a−11c, 12a−12c, 13a−13c, 14a−14c, 15a−15c, 16a, 23a−23c, 24a−24c, 25a−25c, 34a−34c and 35a−35c was evaluated in vitro on four human tumor cell lines (American Type Culture Collection, Manassas, VA, USA): metastatic colorectal adenocarcinoma (SW620), ductal pancreatic adenocarcinoma (CFPAC-1), hepatocellular carcinoma (HepG2) and cervical carcinoma (HeLa) as well as normal skin fibroblasts (HFF).

[2] = Metabolic stability in mouse liver microsomes; type: in vitro ADME; conditions: for t1/2: mouse liver microsomes, 1 µM; for In Vivo CLh / In Vivo CLh (% LBF): mouse; for In Vivo CLh: predicted in vivo hepatic clearance; for In Vivo CLh (% LBF): predicted, % of liver blood flow
Description: Metabolic stability of compounds was assessed in human and mouse liver microsomes (Corning, Tewksbury, MA, USA). Compounds, in final concentration of 1 µM, were incubated in phosphate buffer (50 mM, pH 7.4) for 60 min at 37 °C together with liver microsomes and NADPH generating system (nicotinamide adenine dinucleotide phosphate (NADP, 0.5 mM), glucose-6-phosphate (G6P, 5 mM), glucose-6-phosphate dehydrogenase (1.5 U mL^−1) and magnesium chloride (0.5 mM)). Also, compounds were incubated without the presence of NADPH cofactor, as a buffer stability control. Metabolic activity of liver microsomes was verified by including testosterone and propranolol as positive controls, as well as caffeine as a negative control. Sampling was performed at six time points (0, 10, 20, 30, 45 and 60 min), followed by reaction termination by addition of acetonitrile/methanol mixture (2:1, v/v) containing dicofenac as internal standard. Samples were analyzed as previously described for samples from permeability assay. The in vitro half-life (t1/2) was calculated from the slope of the linear regression by plotting ln % remaining of parent compound against incubation time. In vitro intrinsic clearance, CLint was calculated from half-life using following Equation (3):(3) CLint [µL min^−1 mg^−1]=ln2/t1/2×mL per incubation/mg protein per incubation where 52.5 mg protein/g liver is used as a constant.
Predicted in vivo hepatic clearance, in vivo CLh was calculated as follows:(4) in vivo CLh [mL min^−1 kg^−1]=CLint×(mg protein/g liver)×Q×(LW/BW) /Q+(CLint×(mg protein/g liver)×(LW/BW)) where: LW/BW = liver weight/body weight [g kg^−1]; 25.7 (human), 87.5 (mouse); Q = LBF = liver blood flow [mL min^−1 kg^−1]; 21/1.26 (human), 131/7.86 (mouse).
Predicted in vivo hepatic clearance can be expressed as %LBF and calculated as follows:(5) in vivo CLh [%LBF]=in vivo CLh/LBF×100

[3] = system: ductal pancreatic adenocarcinoma (CFPAC-1); assay: In vitro antiproliferative activity, CFPAC-1; type: cell-based, human; conditions: CFPAC-1 cells
Description: as §1

[4] = Turbidimetric kinetic solubility assay; conditions: for Kinetic Solubility: PBS, 1% DMSO, 37 °C, 2 h, estimated range; for Solubility classification: kinetic solubility, in words
Description: The turbidimetric solubility assay, which allows a rapid determination of the kinetic solubility of newly synthesized compounds using small amounts of their DMSO solutions, was used to assess the kinetic solubility [38].
The compounds’ DMSO stock solutions in concentration of 10 mM were serially diluted by factor 3.3×, 3×, 3.3× and 3× in DMSO. Prepared solutions were spiked into phosphate-buffered saline (PBS, 100 mM) to obtain final compounds’ concentrations of 100, 30, 10, 3 and 1 µM (3 µL of prepared dilutions were spiked to 297 µL of PBS, with final DMSO content of 1%, v/v). All compounds were tested in two replicas per concentration. Prepared solutions were incubated at 37 °C for 2 h with gentle shaking. Blank solutions were also prepared by spiking DMSO in PBS buffer (1% of DMSO, v/v). […] Compound/control samples are compared to the blank solution. […] Results were expressed as an estimated solubility range (lower and upper bound).

[5] = Square-wave and cyclic voltammetry on glassy carbon electrode; type: physicochemical; conditions: SWV, 0.5 mol/L NaClO4, pH 9, vs Ag/AgCl
Excerpt: The electrochemical properties of 6-chloro-7-deazapurine and 6-chloropurine derivatives of ferrocene 11c, 13a and 15b on a glassy carbon electrode were studied using cyclic (CV) and square-wave voltammetry (SWV) in aqueous electrolyte solutions over a wide pH range. The pH was varied from 2 to 10 in order to determine the effect of pH on the voltammograms (net peak currents and potentials). […] The pH of the solution affects the voltammetric response of this compound, i.e., the oxidation of evaluated compounds 11c, 13a and 15b is strongly dependent on it.
The forward (if) and backward (ib) components of the net response (Δi = if − ib) are shown as well (inset in Figure 2). […] The peak P1 occurs in all supporting electrolytes (i.e., at 2 ≤ pH ≤ 10), while the peak P2 is only observed at pH ≥ 9 (see Figure 1). The potential of peak P1 is pH-independent. Comparing to the literature data, peak P1 can be ascribed to the following charge transfer reaction [Fe^II(C5H5)2] ⇌ [Fe^III(C5H5)2]^+ + e^− [44, 48].
All chemicals used in the experiments were of the best grade commercially available (Sigma-Aldrich) and were used without further purification. Stock standard solutions of compounds 11c, 13a, 15b (c = 2.0 × 10^−3 mol/L) and 6-chloropurine (c = 1.2 × 10^−2 mol/L) were prepared from dry pure substances in dimethyl sulfoxide (DMSO, p.a.), purchased from Kemika (Zagreb, Croatia). Stock standard solution of ethynyl ferrocene (c = 1.1 × 10^−2 mol/L) was prepared from dry pure substance in ethanol (Kemika). For the supporting electrolyte, analytical grade NaClO4 (Kemika) was used. Water was deionized by the Millipore Milli-Q system to the resistivity ≥ 18 MΩcm. Voltammetric measurements were carried out using the computer-controlled electrochemical system „PGSTAT 101“ (Eco-Chemie, Utrecht, The Netherlands), controlled by the electrochemical software “NOVA 1.5”. A three-electrode system (BioLogic, Claix, France) with glassy carbon electrode (GCE) of 3 mm in diameter as a working electrode, Ag/AgCl (3 mol/L NaCl) as a reference electrode and a platinum wire as a counter electrode were used. All potentials were expressed versus Ag/AgCl (3 mol/L NaCl) reference electrode. The supporting electrolyte (0.5 mol/L NaClO4), adjusted to the desired pH value, was placed in the electrochemical cell and the required aliquot of the standard analyte solution was added. The solution in the electrochemical cell was degassed with high purity nitrogen for 10 min before measurement, and the nitrogen blanket was maintained thereafter. Before each run, the glassy carbon working electrode was polished with diamond suspension in spray (grain size 6 µm) and rinsed with ethanol and deionized water. All experiments were performed at room temperature. The presented results are reported as the mean value of three independent measurements.

| IC50 [1] [µM] | t1/2 [2] [min] | In Vivo CLh [2] [mL/min/kg] | In Vivo CLh (% LBF) [2] [% LBF] | IC50 [3] [µM] | Kinetic Solubility [4] [µM] | Oxidation peak P1 potential (ferrocene) [5] | Oxidation peak P2 potential (triazole) [5] | Solubility classification [4] | Compound |
| --- | --- | --- | --- | --- | --- | --- | --- | --- | --- |
| 31.9 ± 4.32 | 1.3 | 25.6 | 99 | 35 ± 5.44 | 3 to 10 | ~ 0.4 V | ~ 1.1 V | – | Clc1ncnc2c1ccn2Cc1cn(-[c-]2cccc2)nn1.[Fe+2].c1cc[cH-]c1 [Compound 11c, 4-Chloro-7-[1-(1-ferrocenyl-1,2,3-triazol-1-yl)methyl]-7H-pyrrolo[2,3-d]pyrimidine] |
| 19.9 ± 5.12 | 5.5 | 25.1 | 98 | 22.8 ± 4.31 | >100 | ~ 0.4 V | ~ 1.1 V | high solubility | Clc1ncnc2c1ncn2Cc1cn(C[c-]2cccc2)nn1.[Fe+2].c1cc[cH-]c1 [Compound 13a, 6-Chloro-9-[1-(1-ferrocenymethyl-1,2,3-triazol-4-yl)methyl]-9H-purine] |
| 37.1 ± 1.84 | 2.9 | 25.4 | 99 | 28.6 ± 2.68 | >100 | ~ 0.4 V | ~ 1.1 V | high solubility | CC([c-]1cccc1)n1cc(Cn2cnc3ncnc(Cl)c32)nn1.[Fe+2].c1cc[cH-]c1 (centres unmarked) [Compound 15b, 6-Chloro-7-[1-(1-ferrocenyl-1-methylmethyl-1,2,3-triazol-4-yl)methyl]-7H-purine] |
